≈ marks a conversion by molar mass, not a printed value. Where “and” joins values, the source holds several entries; their conditions need not be identical. Equal values may be shown once. Read-outs that look alike come from different tables or passages of the source.
What was measured:
[1] = system: Propionibacterium acnes ATCC 6919; experiment: Antibacterial activity assay (MIC, broth dilution); type: cell-based; conditions: Cutibacterium acnes
[2] = system: MSSA (ATCC 25293) biofilm; experiment: Calgary Biofilm Device anti-biofilm activity; type: cell-based; conditions: Staphylococcus aureus; for MBC: read-out: MBEC = Minimum Biofilm Eradication Concentration; for MIC: read-out: MBIC = Minimum Biofilm Inhibitory Concentration
[3] = system: clinical isolates of MSSA (methicillin sensitive S. aureus); type: cell-based
[4] = system: Bacillus anthracis Sterne 34F2; experiment: microbe, parasite or virus in culture; type: cell-based; conditions: STERNE34F2, read-out: MIC, BA
[5] = system: Vero monkey kidney cell line (ATCC, CCL-81); experiment: Cytotoxicity assay (MTT); type: cell-based; conditions: IC50 divided by MIC against S. aureus 8325
Procedure: (§1) Cytotoxicity assays of drugs of Formula I of Example 3 and of Formula II of Example 5 were performed using the Vero monkey kidney cell line (ATCC, CCL-81). Vero cells were grown in tissue culture flasks in Dulbecco's Modified Eagle's Medium (ATCC) supplemented with 10% fetal bovine serum and maintained in a humidified incubator (37° C., 5% CO2). Cells were removed with a cell scraper, collected by centrifugation and then suspended in fresh medium at ˜10^6 cells/mL. The cell suspensions were dispensed into 96-well microtiter plates (100 μl/well) and incubated for 18 hours at 37° C. before being used for cytotoxicity assays. Test compounds were subsequently added at concentrations ranging from 400-0.024 μg/mL and 0.1% vol/vol of Triton-X 100, which causes 100% death of cells, was included as a control. After incubating cells and compounds for 72 hours in humid air (37° C., 5% CO2) the cytopathic effects of compounds were determined using the MTT Cell Proliferation Assay (ATCC, Cat No. 30-1010K). The MTT solution reagent (10 μl) was added to each well and plates incubated at 37° C. until sufficient purple color development occurred in cells (3 hours). After detergent cell lysis, the purple formazan product was measured at 570 nm in a Synergy HT Biotek microplate reader. IC50 data was obtained from dose response curves plotted from percentage activity versus log10 concentration using Graphpad prism 5.

Cytotoxicity assay (MTT) = type: cell-based, monkey; conditions: monkey, Vero monkey kidney cells (ATCC CCL-81); Vero cells, 72 hours, MTT; read-out: IC50 (Cytotoxicity): Concentration which reduces viability of Vero kidney cells by 50%
Procedure: as §1

[6] = system: MRSA (ATCC 35391) biofilm; experiment: Calgary Biofilm Device anti-biofilm activity; type: cell-based, Staphylococcus aureus; conditions: Staphylococcus aureus, triplicate runs listed singly; for MIC: read-out: MBIC = Minimum Biofilm Inhibitory Concentration
[7] = system: S. epidermidis (RP62A) biofilm; experiment: Calgary Biofilm Device anti-biofilm activity; type: cell-based; conditions: Staphylococcus epidermidis, S. epidermidis biofilm, triplicate runs listed singly; for MBC: read-out: MBEC = Minimum Biofilm Eradication Concentration; for MIC: read-out: MBIC = Minimum Biofilm Inhibitory Concentration
[8] = system: Methicillin sensitive Staphylococcus aureus 8325 ATCC 35556; experiment: Antibacterial activity assay (MIC, broth dilution); type: cell-based; conditions: ATCC 35556 / MSSA, read-out: MIC, MSSA
[9] = system: methicillin-sensitive S. aureus ATCC 29213; experiment: Superficial skin infection model in mice; type: in vivo, Balb/c mice; conditions: topical, twice daily for three days, bacteria in lesions on day 5, placebo 8.15 +/− 0.37
Procedure: Compounds of the invention were tested for the ability to treat skin infections utilizing an established animal model of skin infection. The superficial skin infection model used in this study was previously developed by Kugelberg et al, “Establishment of a Superficial Skin Infection Model in Mice using Staphylococcus aureus and Streptococcus pyogenes”, Antimicrob. Agents Chemother., 49(8):3435-3441 (2005).
Superficial infections in Balb/c mice (male) were caused by first removing hair from the backs of mice with an electric shaver, followed by dry shaving with a razor and tape stripping with Tensoplast® (BSN Medical Inc., Charlotte, N.C.) adhesive bandage to remove the epidermis, followed by infection with a 5 μl bacterial suspension containing about 10^7 bacterial cells of methicillin-sensitive S. aureus ATCC 29213, a strain from a previous isolate from a human wound infection and used in other murine infection studies. After 4 hours of infection, treatment was started by administering 45-50 mg of ointment containing (i) vehicle hydrophilic petrolatum (placebo) (ii) 2% w/w mupirocin ointment (Bactroban®, GlaxoSmithKline plc., United Kingdom) in vehicle or (iii) 2% tetramic acid analogue of the invention (13b) in vehicle, (iv) 10% tetramic acid analogue of the invention (13b) in vehicle, (v) 2% tetramic acid analogue of the invention (13l) in vehicle, or (vi) 10% tetramic acid analogue of the invention (13l) in vehicle. Treatment was continued for three days with drug application twice daily at 8 hour intervals. On day 5, mice were sacrificed and the numbers of bacteria in lesions were enumerated.
This conclusion stems from statistical analysis of the resulting means by one way ANOVA followed by Tukey's test at P<0.01 with Placebo as the control group. Therefore, the tetramic acid analogues of the invention have the potential to be used clinically for the treatment of skin infections, such as those caused by Staphylococcus aureus.

[10] = system: Streptococcus pneumoniae DAW30EC; experiment: Antibacterial activity assay (MIC, broth dilution); type: cell-based; conditions: read-out: MIC, SPn
[11] = system: Enterococcus faecalis ATCC 33186; experiment: Antibacterial activity assay (MIC, broth dilution); type: cell-based
[12] = system: Bacillus subtilis ATCC 23857; experiment: Antibacterial activity assay (MIC, broth dilution); type: cell-based
[13] = system: Mycobacterium tuberculosis H37 Rv; experiment: Antibacterial activity assay (MIC, broth dilution); type: cell-based; conditions: H37RV, 168 h, read-out: MIC, TB
[14] = system: Methicillin Resistant Staphylococcus aureus ATCC 33591; experiment: Antibacterial activity assay (MIC, broth dilution); type: cell-based; conditions: ATCC 33591 / MRSA, read-out: MIC, MRSA
[15] = system: clinical isolates of MRSA (methicillin resistant S. aureus); type: cell-based
[16] = system: Streptococcus pyogenes ATCC 700294; experiment: Antibacterial activity assay (MIC, broth dilution); type: cell-based
Staphylococcus aureus = experiment: Selection of single-step resistant mutants; type: cell-based; conditions: from a population of 10^10 cells
[17] = MSSA biofilm, triplicate runs listed singly
[18] = MRSA biofilm, read-out: MBEC = Minimum Biofilm Eradication Concentration

C/C(O)=C1\C(=O)[C@H](CC(C)C)N(CC2=CCC3CC2C3(C)C)C1=O (stereo partly drawn) [Compound 13l, (5S,Z)-1-((6,6-dimethylbicyclo[3.1.1]hept-2-en-2-yl)methyl)-3-(1-hydroxyethylidene)-5-isobutylpyrrolidine-2,4-dione]
MIC ([1]; ATCC6919, read-out: MIC, PA): 0.8 mg/L (≈ 2.41 µM) | MBC [2, 17]: > 400 mg/L | MIC [2]: 3.12 mg/L (≈ 9.41 µM) | Antibiotic MIC [3]: 3.2 mg/L and 1.6 mg/L | MIC [4]: 0.8 mg/L (≈ 2.41 µM) | IC50/MIC = Selectivity (therapeutic) index [5]: 22.1 | IC50 at 72 h (Cytotoxicity assay (MTT)): 35.4 mg/L | MBC [6, 18]: > 400 mg/L | MIC ([6]; MRSA biofilm): 1.6 mg/L (≈ 4.83 µM) | MBC [7]: > 400 mg/L | MIC [7]: 1.6 mg/L (≈ 4.83 µM) | MIC ([8]; Staphylococcus aureus): 1.6 mg/L (≈ 4.83 µM) | Mean Bacterial Count (log10) +/− SD ([9]; 2% ointment): 7.67 +/− 0.21 log10 | Mean Bacterial Count (log10) +/− SD ([9]; 10% ointment): 6.51 +/− 0.67 log10 | MIC ([10]; Streptococcus pneumoniae, DAW30EC): 50 mg/L (≈ 151 µM) | MIC ([11]; Enterococcus faecalis, ATCC33186, read-out: MIC, EF): 1.6 mg/L (≈ 4.83 µM) | MIC ([12]; Bacillus subtilis, ATCC23857, read-out: MIC, BS): 1.6 mg/L (≈ 4.83 µM) | MIC ([13]; Mycobacterium tuberculosis): 100 mg/L (≈ 302 µM) | MIC [14]: 1.6 mg/L (≈ 4.83 µM) | Antibiotic MIC ([15]; isolate MRSA-1): 3.12 mg/L | Antibiotic MIC ([15]; isolate MRSA-2): 3.12 mg/L | Antibiotic MIC ([15]; isolate MRSA-3): 3.12 mg/L | Antibiotic MIC ([15]; isolate MRSA-4): 3.12 mg/L | Antibiotic MIC ([15]; isolate MRSA-5): 3.12 mg/L | Antibiotic MIC ([15]; isolate MRSA-6): 3.12 mg/L | Antibiotic MIC ([15]; isolate MRSA-7): 3.12 mg/L | Antibiotic MIC ([15]; isolate MRSA-8): 0.4 mg/L | Antibiotic MIC ([15]; isolate MRSA-9): 3.12 mg/L | Antibiotic MIC ([15]; isolate MRSA-10): 3.12 mg/L | MIC ([16]; Streptococcus pyogenes, ATCC700294, read-out: MIC, SP): 25 mg/L (≈ 75.4 µM)

C/C(=C\C(=O)OCCCCCCCCC(=O)O)C[C@@H]1OC[C@H](C[C@@H]2O[C@H]2[C@@H](C)[C@H](C)O)[C@@H](O)[C@H]1O [Mupirocin, mupirocin, reference compound]
MBC [2, 17]: > 400 mg/L | MIC [2, 17]: < 0.2 mg/L | MBC [6, 18]: > 400 mg/L | MIC ([6]; MRSA biofilm): < 0.2 mg/L | MBC [7]: > 400 mg/L | MIC [7]: < 0.2 mg/L | Mean Bacterial Count (log10) +/− SD ([9]; 2% ointment): 5.95 +/− 0.92 log10

CCCCCCCCCCN1C(=O)/C(=C(/C)O)C(=O)[C@@H]1CC(C)C [Compound 13b, (S,Z)-1-decyl-3-(1-hydroxyethylidene)-5-isobutylpyrrolidine-2,4-dione]
MIC ([1]; ATCC6919, Propionibacterium acnes ATCC 6919, read-out: MIC, PA): 0.8 mg/L (≈ 2.37 µM) | MBC [2, 17]: 100 mg/L (≈ 296 µM) | MIC [2, 17]: 0.8 mg/L (≈ 2.37 µM) | Antibiotic MIC ([3]; isolate MSSA-11): 0.8 mg/L | Antibiotic MIC ([3]; isolate MSSA-12): 0.4 mg/L | Antibiotic MIC ([3]; isolate MSSA-13): 0.4 mg/L | Antibiotic MIC ([3]; isolate MSSA-14): 0.4 mg/L | Antibiotic MIC ([3]; isolate MSSA-15): 0.4 mg/L | Antibiotic MIC ([3]; isolate MSSA-16): 0.4 mg/L | Antibiotic MIC ([3]; isolate MSSA-17): 0.4 mg/L | Antibiotic MIC ([3]; isolate MSSA-18): 0.4 mg/L | Antibiotic MIC ([3]; isolate MSSA-19): 0.4 mg/L | Antibiotic MIC ([3]; isolate MSSA-20): 0.8 mg/L | MIC [4]: 0.8 mg/L (≈ 2.37 µM) | IC50/MIC = Selectivity (therapeutic) index [5]: 36.8 | IC50 at 72 h (Cytotoxicity assay (MTT)): 14.7 mg/L | MIC ([6]; MRSA biofilm): 0.8 mg/L (≈ 2.37 µM) | MBC ([6]; read-out: MBEC = Minimum Biofilm Eradication Concentration, MRSA biofilm): 6.25 mg/L (≈ 18.5 µM) | MBC [7]: 50 mg/L (≈ 148 µM) | MIC [7]: 0.4 mg/L (≈ 1.19 µM) | MIC ([8]; Methicillin sensitive Staphylococcus aureus 8325 ATCC 35556): 0.4 mg/L (≈ 1.19 µM) | Mean Bacterial Count (log10) +/− SD ([9]; 2% ointment): 8.08 +/− 0.28 log10 | Mean Bacterial Count (log10) +/− SD ([9]; 10% ointment): 6.47 +/− 0.58 log10 | MIC ([10]; Streptococcus pneumoniae DAW30EC): 6.25 mg/L (≈ 18.5 µM) | MIC ([11]; ATCC33186, Enterococcus faecalis ATCC 33186, read-out: MIC, EF): 1.6 mg/L (≈ 4.74 µM) | MIC ([12]; ATCC23857, Bacillus subtilis ATCC 23857, read-out: MIC, BS): 0.8 mg/L (≈ 2.37 µM) | MIC ([13]; Mycobacterium tuberculosis H37 Rv, […]): 12.5 mg/L (≈ 37 µM) | MIC [14]: 0.8 mg/L (≈ 2.37 µM) | Antibiotic MIC ([15]; isolate MRSA-1): 0.8 mg/L | Antibiotic MIC ([15]; isolate MRSA-2): 0.8 mg/L | Antibiotic MIC ([15]; isolate MRSA-3): 0.8 mg/L | Antibiotic MIC ([15]; isolate MRSA-4): 0.8 mg/L | Antibiotic MIC ([15]; isolate MRSA-5): 0.8 mg/L | Antibiotic MIC ([15]; isolate MRSA-6): 1.6 mg/L | Antibiotic MIC ([15]; isolate MRSA-7): 0.8 mg/L | Antibiotic MIC ([15]; isolate MRSA-8): 0.4 mg/L | Antibiotic MIC ([15]; isolate MRSA-9): 0.8 mg/L | Antibiotic MIC ([15]; isolate MRSA-10): 0.8 mg/L | single-step mutants resistant to the compound (Staphylococcus aureus): could not be obtained | MIC ([16]; ATCC700294, Streptococcus pyogenes ATCC 700294, read-out: MIC, SP): 50 mg/L (≈ 148 µM)

Source: patent US8552208B2, “Analogs of tetramic acid” (University of Tennesseee Research Foundation, priority 2007, dated 2013)
